Data from patent US9521847B2, “Synergistic weed control from applications of pyridine carboxylic acid herbicides and synthetic auxin herbicides and/or auxin transport inhibitors” (Dow AgroSciences LLC, priority 2014, dated 2016).
Where two headings read alike, the source gives them in different places.

Legend:
[1] = system: poinsettia (Euphorbia heterophylla, EPHHL); assay: Greenhouse postemergence trial, % visual injury; details: Euphorbia heterophylla, post-emergence; for pest or weed control at 5 g/ha: read-out: % visual injury Obs, 5 g ae/ha alone, 20-22 d
[2] = system: spring rape (Brassica napus, BRSNN); assay: Greenhouse postemergence trial, % visual injury; details: Brassica napus, post-emergence
[3] = system: grain sorghum (Sorghum vulgare, SORVU); assay: Greenhouse postemergence trial, % visual injury; format: in vivo; details: for % visual injury Obs: 5 g ae/ha alone, 20-22 d
[4] = system: wild buckwheat (Polygonum convolvulus, POLCO); assay: Greenhouse postemergence trial, % visual injury; format: in vivo; details: 5 g ae/ha alone; 20-22 d
winter wheat (TRZAW) [5] = assay: Greenhouse postemergence trial, crop phytotoxicity (% visual injury); details: for % visual injury Obs: crop, 5 g ae/ha alone, 20-22 d
[6] = system: wild pansy (Viola tricolor, VIOTR); assay: Greenhouse postemergence trial, % visual injury; details: for pest or weed control at 5 g/ha: Viola tricolor, post-emergence, read-out: % visual injury Obs
[7] = system: common chickweed (Stellaria media, STEME); assay: Greenhouse postemergence trial, % visual injury; format: in vivo; details: 5 g ae/ha alone; 20-22 d
[8] = system: Canadian thistle (CIRAR, Cirsium arvense); assay: Greenhouse postemergence trial, % visual injury; details: for pest or weed control at 5 g/ha: Cirsium arvense, post-emergence;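 on all read-outs here: plants sprayed at second to third true leaf stage, injury scored visually 20-22 d later against solvent-blank sprayed controls, 0 meaning no injury and 100 complete kill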
[9] = system: nutsedge (Cyperus esculentus, CYPES); assay: Greenhouse postemergence trial, % visual injury; format: in vivo; details: for pest or weed control at 5 g/ha: Cyperus, post-emergence, 5 g ae/ha alone, 20-22 d, read-out: % visual injury Obs
maize (ZEAMX) = assay: Greenhouse postemergence trial, crop phytotoxicity (% visual injury); details: for % visual injury Obs: crop, 5 g ae/ha alone, 20-22 d
[10] = system: common lambsquarters (CHEAL, Chenopodium album L.); assay: Greenhouse postemergence trial, % visual injury; format: in vivo; details: Chenopodium album, post-emergence; 5 g ae/ha alone; 20-22 d; read-out: % visual injury Obs
[11] = system: velvetleaf (Abutilon theophrasti, ABUTH); assay: Greenhouse postemergence trial, % visual injury; format: in vivo; details: for % visual injury Obs: 5 g ae/ha alone, 20-22 d
[12] = system: sunflower (Helianthus annus, HELAN); assay: Greenhouse postemergence trial, % visual injury; format: in vivo; details: 5 g ae/ha alone; 20-22 d
winter wheat (TRZAW) [13] = details: Triticum aestivum (winter wheat), in vivo
[14] = system: kochia (KCHSC, Kochia scoparia); assay: Greenhouse postemergence trial, % visual injury; format: in vivo; details: KCHSC
Experimental: Following the protocol in Example 1, compound 1 and compound 2 were combined with 2,4 D EHE (EC) and applied to kochia (KCHSC, Kochia scoparia) and the phytotoxicity of the herbicidal compositions was measured.
Following the protocol in Example 1, compound 1 (EC) and Compound 2 (SC) were combined with diflufenzopyr and applied to kochia (Kochia scoparia, KCHSC) and the phytotoxicity of the herbicidal composition was measured.

common rice (ORYSA) = assay: Greenhouse postemergence trial, crop phytotoxicity (% visual injury); details: ORYSA, 10 g ae/ha
[15] = system: ivyleaf morningglory (Ipomoea hederacea, IPOHE); assay: Greenhouse postemergence trial, % visual injury; details: Ipomoea, post-emergence, read-out: % visual injury, Obs, IPOHE, 10 g ae/ha
[16] = read-out: % visual injury (Obs)

Row | SMILES | pest or weed control at 5 g/ha [1] [%] | plant injury at 5 g/ha ([2]; read-out: % visual injury Obs) [%] | % visual injury Obs [3] [%] | % visual injury Obs [4] [%] | % visual injury Obs (winter wheat (TRZAW) [5]) [%] | pest or weed control at 5 g/ha [6] [%] | pest or weed control at 5 g/ha ([8]; read-out: % visual injury Obs) [%] | pest or weed control at 5 g/ha [9] [%] | % visual injury Obs (maize (ZEAMX)) [%] | pest or weed control at 5 g/ha [10] [%] | % visual injury Obs [11] [%] | further results
1 | COc1c(N)nc(-c2ccc3sccc3c2)nc1C(=O)O [compound 11] | 25 | 10 | 5 | 10 | 10 | 10 | 5 | 0 |  |  |  | % visual injury Obs [7]: 40%
2 | COC(=O)c1nc(-c2ccc3ccoc3c2F)nc(N)c1OC [compound 12] | 35 | 50 | 0 |  | 0 | 18 | 10 | 5 | 0 | 84 | 10 | 
3 | COC(=O)c1nc(-c2ccc3cc[nH]c3c2F)c(F)c(/N=C/N(C)C)c1Cl [compound 13] | 75 |  |  | 25 |  | 25 | 10 | 0 |  | 60 | 0 | % visual injury Obs [7]: 50%
4 | Nc1c(F)c(-c2cc(F)c3[nH]ccc3c2)nc(C(=O)O)c1Cl [compound 14] | 20 | 10 | 0 |  | 0 | 10 | 5 |  | 0 | 15 | 0 | % visual injury Obs [12]: 10%
5 | C=C(F)c1c(C(=O)O)nc(-c2ccc3cc[nH]c3c2F)c(F)c1N [compound 15] | 73 |  | 0 | 30 | 5 | 33 | 15 | 25 | 0 |  | 30 | % visual injury Obs [12]: 90%
6 | Nc1c(F)c(-c2ccc3cc[nH]c3c2)nc(C(=O)O)c1Cl [compound 16] |  |  |  |  |  |  |  |  |  |  |  | % visual injury (Obs) (winter wheat (TRZAW) [13]): 0%; plant injury at 5 g/ha [2, 16]: 60%; % visual injury (Obs) ([3]; compound 16 5 g ae/ha): 13%; % visual injury (Obs) ([6]; compound 16 5 g ae/ha): 25%; pest or weed control at 5 g/ha [8, 16]: 20%; % visual injury (Obs) ([9]; compound 16 5 g ae/ha): 25%
7 | C/C(=N\NC(=O)Nc1cc(F)cc(F)c1)c1ncccc1C(=O)O [diflufenzopyr] |  |  |  |  |  |  |  |  |  |  |  | % visual injury, Obs. ([14]; diflufenzopyr 3.5 g ae/ha, Table 60): 0%; % visual injury, Obs. ([14]; diflufenzopyr 3.5 g ae/ha, Table 61): 0%; % visual injury, Obs. ([14]; diflufenzopyr 7 g ae/ha, Table 60): 0%; % visual injury, Obs. ([14]; diflufenzopyr 7 g ae/ha, Table 61): 0%
8 | Nc1c(Cl)c(Cl)nc(C(=O)O)c1Cl [picloram-potassium, reference compound] |  |  |  |  |  |  |  |  |  |  |  | pest or weed control at 10 g/ha ([1]; read-out: % visual injury, Obs, EPHHL, 10 g ae/ha): 20%; pest or weed control at 10 g/ha ([14]; Bassia scoparia, post-emergence, 10 g ae/ha, read-out: % visual injury, Obs): 0%; plant injury at 10 g/ha ([2]; read-out: % visual injury, Obs): 20%; % visual injury, Obs ([3]; SORVU, 10 g ae/ha): 0%; % visual injury, Obs (winter wheat (TRZAW) [5]; TRZAW, 10 g ae/ha): 0%; % visual injury, Obs ([6]; VIOTR, 10 g ae/ha): 0%; % visual injury, Obs ([8]; CIRAR, 10 g ae/ha): 60%; % visual injury, Obs (common rice (ORYSA)): 0%; pest or weed control at 10 g/ha [15]: 40%; % visual injury, Obs ([9]; CYPES, 10 g ae/ha): 0%; % visual injury, Obs (maize (ZEAMX); ZEAMX, 10 g ae/ha): 0%; pest or weed control at 10 g/ha ([11]; Abutilon theophrasti, post-emergence, ABUTH, 10 g ae/ha, read-out: % visual injury, Obs): 35%
